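Compound exposure: 48 hours, 5 concentrations, 96-well plates. At the TGI there is no net growth.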
Tests used:
Assay in all cases: NCI tumour cell line growth inhibition, 48 h
A498 renal = tested on: A498 renal
A549 NSCLC = tested on: A549 NSCLC
EKVX NSCLC = tested on: EKVX NSCLC
HCT-116 colon = tested on: HCT-116 colon
HOP-62 NSCLC = tested on: HOP-62 NSCLC
HS 578T breast = tested on: HS 578T breast
OVCAR-4 ovarian = tested on: OVCAR-4 ovarian
SK-MEL-28 melanoma = tested on: SK-MEL-28 melanoma
SK-MEL-5 melanoma = tested on: SK-MEL-5 melanoma
TK-10 renal = tested on: TK-10 renal
MCF7 breast = tested on: MCF7 breast

| SMILES | TGI (A498 renal) [µM] | TGI (A549 NSCLC) [µM] | TGI (EKVX NSCLC) [µM] | TGI (HCT-116 colon) [µM] | TGI (HOP-62 NSCLC) [µM] | TGI (HS 578T breast) [µM] | TGI (OVCAR-4 ovarian) [µM] | TGI (SK-MEL-28 melanoma) [µM] | TGI (SK-MEL-5 melanoma) [µM] | TGI (TK-10 renal) [µM] | TGI (MCF7 breast) [µM] |
| --- | --- | --- | --- | --- | --- | --- | --- | --- | --- | --- | --- |
| CC1(CCOCc2ccccc2)NC(=O)NC1=O (centres undefined) | > 100 | > 100 | > 100 | > 100 | > 100 | > 100 | > 100 | > 100 | > 100 | > 100 | – |
| CCCCCCOC(=O)/C=C/[C@]1(CO)C/C(=C/CC(C(C)C)C(C)C)C(=O)O1 | 20.6 | 18.4 | 13.4 | 25.9 | 27.6 | 22.1 | 36 | 23.2 | 20.3 | 14 | 30.4 |
| CN1CCN(C(=S)N2CCN(C)CC2)CC1 | > 100 | > 100 | > 100 | > 100 | > 100 | > 100 | > 100 | > 100 | > 100 | > 100 | > 37.3 |
| CCCCCCc1cc2cc(C(=O)Nc3ccccc3)c(=N)oc2cc1O | > 100 | > 37.5 | > 100 | 6.59 | 11.8 | 20 | > 60.9 | > 100 | 8.41 | > 100 | > 100 |
| COc1ccc(S(=O)(=O)c2nnc(S(=O)(=O)Cc3ccccc3)s2)cc1 | 39.9 | 49.3 | 57.2 | 38.1 | 75.5 | 43 | > 100 | 40.3 | 34.2 | 39.6 | 60.6 |
| N#Cc1c(N)nc2n[nH]c(N)c2c1-c1ccc(Cl)cc1 | 3.14 | > 72.9 | 44 | > 100 | 71.5 | 8.64 | > 100 | > 100 | > 81.1 | – | 19 |
| CCOC1OC(=O)c2cc3ccc4c(c3c(-c3ccc5c(c3)OCO5)c21)OCO4 (centres undefined) | > 100 | > 100 | > 100 | 18.6 | > 100 | > 39.6 | > 100 | > 100 | 27 | > 77.9 | > 100 |
| CC1OC(OC2C(O)COC(OC3C(C)OC(OC4C(OC(=O)[C@]56CCC(C)(C)C[C@@H]5C5=CCC7[C@@]8(C)C[C@H](O)[C@H](OC9OC(CO)C(O)C(O)C9O)[C@@](C)(CO)[C@@H]8CC[C@@]7(C)[C@]5(C)CC6)OCC(O)C4O)C(O)C3OC3OCC(O)(CO)C3O)C2O)C(O)C(O)C1O (some centres undefined) | 13.6 | 18 | 15.8 | 30.6 | 34.5 | 35.8 | 37.2 | 13.6 | 29.8 | 32.1 | > 67.9 |
| CC12CC(c3ccccc3O1)C(C(=O)Nc1ccc(Cl)cc1Cl)C(=O)N2 (centres undefined) | – | 56.8 | 50.2 | > 100 | 48.4 | 47.7 | 39.6 | > 100 | > 100 | – | > 100 |
| Cn1ccc(C(=O)NCCN(CCNC(=O)c2ccn(C)c(=O)c2O)CCNC(=O)c2cccc(=O)n2O)c(O)c1=O | > 100 | > 100 | – | > 100 | > 100 | > 100 | > 100 | > 100 | > 100 | – | > 100 |
| O=c1cnn(C/C=C/CO)c(=O)[nH]1 | > 100 | > 100 | > 100 | – | > 100 | > 100 | – | > 100 | > 100 | > 100 | > 100 |
| COc1ccc(-[n+]2nc(S(=O)(=O)O)c(/C=C/c3ccc(N(C)C)cc3)cc2C#N)cc1 | > 100 | > 100 | > 100 | > 100 | > 100 | > 100 | > 100 | > 100 | > 100 | > 100 | > 100 |
| O=[N+]([O-])c1ccc2c(c1)C1=C(CO2)Cc2ccccc2O1 | > 100 | > 100 | > 100 | 30 | > 100 | – | > 100 | – | 29.7 | 57 | – |
| CSc1nc(Nc2cccc(C(F)(F)F)c2)c2c(N)nn(C)c2n1 | > 100 | > 100 | – | > 100 | > 100 | > 100 | > 100 | > 100 | > 100 | > 100 | – |
| Nc1ncnc2c1ncn2[C@@H]1C[C@@H]1CO | > 100 | > 100 | > 100 | > 100 | > 100 | > 100 | – | – | – | – | > 100 |
| COc1ccc2cc(/C=N/NC(=O)Nc3ccccc3)ccc2c1 | > 100 | – | – | > 100 | > 100 | > 100 | > 100 | – | > 100 | > 100 | > 100 |
| COC(=O)C1=C(O)C(C(=O)OC)[C@]2(O)[C@H](C(=O)OC)[C@H]1C[C@@H](c1ccc(C(F)(F)F)cc1)[C@H]2C(=O)OC (some centres undefined) | 13.9 | > 100 | 32.4 | 5.96 | > 100 | > 100 | > 100 | 35.4 | 10.9 | 22.5 | > 100 |
| Cn1c(=O)c2c(nc(Cc3ccccc3)n2CC(=O)O)n(C)c1=O | > 100 | > 100 | > 100 | > 100 | > 100 | > 100 | > 100 | > 100 | > 100 | > 100 | – |
| OC1C#CCSCC#C/C=C\1 (centres undefined) | > 100 | – | > 100 | > 100 | > 100 | > 100 | > 100 | > 100 | – | > 100 | > 100 |
| Cn1c(=O)n(C2(C)C[Se]C2)c2ccccc21 | > 100 | > 100 | > 100 | > 100 | > 100 | – | > 100 | > 100 | > 100 | > 100 | – |
| O=C(O)CCC(NC(=O)c1ccc(Nc2nc3cc(C(F)(F)F)ccc3nc2-c2ccccc2)cc1)C(=O)O (centres undefined) | > 100 | > 100 | > 100 | > 100 | > 100 | – | > 100 | > 100 | > 100 | – | > 100 |

— PubChem BioAssay (NCI)
